Earlier results in patent US20250135014A1, “TARGETED LINEAR CONJUGATES COMPRISING POLYETHYLENEIMINE AND POLYETHYLENE GLYCOL AND POLYPLEXES COMPRISING THE SAME” (TARGIMMUNE THERAPEUTICS AG, priority 2021, published 2025).

Biological target: EGFR (Homo sapiens, UniProt P00533)
Settings: Ruoslahti et al. 2012; Li et al. 2005

Kd: 0.022 µM
Sequence: YHWYGYTPQNVI [GE-11]
